Earlier results, collected in patent US10449194B2 (Tocagen Inc., priority 2008, dated 2019).
Like-named read-outs stand apart in the source and are kept apart here.

[1] = patients with normal renal function

Structure (SMILES): Nc1nc(=O)[nH]cc1F [Example 5-FC, 5-fluorocytosine]
- Time to peak serum concentrations (2 gram oral dose, normal subjects): ≤ 2 h
- Serum level above which toxicity generally occurs (Vermes et al. 2000): > 100 µg/mL
- Average half-life (nephrectomized or anuric patients): 85 h
- Bioavailability (absorption) after oral administration (oral vs intravenous AUC of serum concentrations): 76-89%
- Half-life in the serum [1]: 2 to 5 h
- Time to peak concentrations in serum and other body fluids [1]: 1 to 2 h
- Half-life in the serum (patients with severe renal insufficiency): up to 85 h
